Measured values from US8889854B2, “C-17 bicyclic amines of triterpenoids with HIV maturation inhibitory activity” (priority 2012, dated 2014).

Test system: recombinant NL4-3 virus (Renilla luciferase in nef, Gag P373S; NLRluc)
Experiment: HIV Cell Culture Assay (luciferase reporter virus in MT-2 cells)
Format: cell-based
Details: Renilla, NL43, MT-2 cells infected for 4-5 days with NLRluc recombinants; luciferase activity
Experimental: MT-2 cells and 293T cells were obtained from the NIH AIDS Research and Reference Reagent Program. MT-2 cells were propagated in RPMI 1640 media supplemented with 10% heat inactivated fetal bovine serum, […]. The 293T cells were propagated in DMEM media supplemented with 10% heat inactivated fetal bovine serum (FBS), 100 units/mL penicillin G and 100 μg/mL streptomycin. The proviral DNA clone of NL4-3 was obtained from the NIH AIDS Research and Reference Reagent Program. A recombinant NL4-3 virus, in which a section of the nef gene from NL4-3 was replaced with the Renilla luciferase gene, was used as a reference virus. In addition, residue Gag P373 was converted to P373S. Briefly, the recombinant virus was prepared by transfection of the altered proviral clone of NL4-3. Transfections were performed in 293T cells using LipofectAMINE PLUS from Invitrogen (Carlsbad, Calif.), according to manufacturer's instruction. The virus was titered in MT-2 cells using luciferase enzyme activity as a marker. Luciferase was quantitated using the Dual Luciferase kit from Promega (Madison, Wis.), with modifications to the manufacturer's protocol. The diluted Passive Lysis solution was pre-mixed with the re-suspended Luciferase Assay Reagent and the re-suspended Stop & Glo Substrate (2:1:1 ratio). Fifty (50) μL of the mixture was added to each aspirated well on assay plates and luciferase activity was measured immediately on a Wallac TriLux (Perkin-Elmer). Antiviral activities of inhibitors toward the recombinant virus were quantified by measuring luciferase activity in cells infected for 4-5 days with NLRluc recombinants in the presence serial dilutions of the inhibitor. Table 1 is the key for the data in Table 2.

Row | Compound | EC50
1 | C=C(C)[C@@H]1CC[C@]2(NCCN3C[C@@H]4C[C@H]3CS4(=O)=O)CC[C@]3(C)[C@H](CC[C@@H]4[C@@]5(C)CC=C(C6=CCC(C(=O)O)CC6)C(C)(C)[C@@H]5CC[C@]43C)[C@@H]12 (stereo partly drawn) [Example B2, 4-((1R,3aS,5aR,5bR,7aR,11aS,11bR,13aR,13bR)-3a-((2((1S,4S)-2,2-dioxido-2-thia-5-azabicyclo[2.2.1]heptan-5-yl)ethyl)amino)-5a,5b,8,8,11a-pentamethyl-1-(prop-1-en-2-yl)-2,3,3a,4,5,5a,5b,6,7,7a,8,11,11a,11b,12,13,13a,13b-octadecahydro-1H-cyclopenta[a]chrysen-9-yl)cyclohex-3-enecarboxylic acid] | 1.18 nM
2 | C=C(C)[C@@H]1CC[C@]2(NCCN3CCC4(CC3)COC4)CC[C@]3(C)[C@H](CC[C@@H]4[C@@]5(C)CC=C(c6ccc(C(=O)O)cc6)C(C)(C)[C@@H]5CC[C@]43C)[C@@H]12 [Example B3] | 3.82 nM
3 | C=C(C)[C@@H]1CC[C@]2(NCCN3C[C@@H]4C[C@H]3CS4(=O)=O)CC[C@]3(C)[C@H](CC[C@@H]4[C@@]5(C)CC=C(C6=CC[C@@H](C(=O)O)CC6)C(C)(C)[C@@H]5CC[C@]43C)[C@@H]12 [Example B8, (S)-4-((1R,3aS,5aR,5bR,7aR,11aS,11bR,13aR,13bR)-3a-((2-((1S,4S)-2,2-dioxido-2-thia-5-azabicyclo[2.2.1]heptan-5-yl)ethyl)amino)-5a,5b,8,8,11a-pentamethyl-1-(prop-1-en-2-yl)-2,3,3a,4,5,5a,5b,6,7,7a,8,11,11a,11b,12,13,13a,13b-octadecahydro-1H-cyclopenta[a]chrysen-9-yl)cyclohex-3-enecarboxylic acid] | 1.3 nM
4 | C=C(C)[C@@H]1CC[C@]2(NCCN3C[C@@H]4C[C@H]3CO4)CC[C@]3(C)[C@H](CC[C@@H]4[C@@]5(C)CC=C(C6=CC[C@H](C(=O)O)CC6)C(C)(C)[C@@H]5CC[C@]43C)[C@@H]12 [Example B9, (R)-4-((1R,3aS,5aR,5bR,7aR,11aS,11bR,13aR,13bR)-3a-((2-((1S,4S)-2-oxa-5-azabicyclo[2.2.1]heptan-5-yl)ethyl)amino)-5a,5b,8,8,11a-pentamethyl-1-(prop-1-en-2-yl)-2,3,3a,4,5,5a,5b,6,7,7a,8,11,11a,11b,12,13,13a,13b-octadecahydro-1H-cyclopenta[a]chrysen-9-yl)cyclohex-3-enecarboxylic acid] | 1.69 nM

Same assay, conditions: Renilla, NL43, MT-2 cells infected for 4-5 days with NLRluc recombinants; luciferase activity; reported as group A/B

Row | Compound | EC50
5 | C=C(C)[C@@H]1CC[C@]2(NCCN3C[C@@H]4C[C@H]3CO4)CC[C@]3(C)[C@H](CC[C@@H]4[C@@]5(C)CC=C(C6=CC[C@@H](C(=O)O)CC6)C(C)(C)[C@@H]5CC[C@]43C)[C@@H]12 [Example B10, (S)-4-((1R,3 aS,5aR,5bR,7aR,11aS,11bR,13 aR,13bR)-3a-((2-((1S,4S)-2-oxa-5-azabicyclo[2.2.1]heptan-5-yl)ethyl)amino)-5a,5b,8,8,11a-pentamethyl-1-(prop-1-en-2-yl)-2,3,3a,4,5,5a,5b,6,7,7a,8,11,11a,11b,12,13,13a,13b-octadecahydro-1H-cyclopenta[a]chrysen-9-yl)cyclohex-3-enecarboxylic acid] | < 100 nM
6 | C=C(C)[C@@H]1CC[C@]2(NCCN3C[C@@H]4C[C@H]3CS4(=O)=O)CC[C@]3(C)[C@H](CC[C@@H]4[C@@]5(C)CC=C(C6=CC[C@H](C(=O)O)CC6)C(C)(C)[C@@H]5CC[C@]43C)[C@@H]12 [Example B11, (R)-4-((1R,3aS,5aR,5bR,7aR,11aS,11bR,13aR,13bR)-3a-((2-((1S,4S)-2,2-dioxido-2-thia-5-azabicyclo[2.2.1]heptan-5-yl)ethyl)amino)-5a,5b,8,8,11a-pentamethyl-1-(prop-1-en-2-yl)-2,3,3a,4,5,5a,5b,6,7,7a,8,11,11a,11b,12,13,13a,13b-octadecahydro-1H-cyclopenta[a]chrysen-9-yl)cyclohex-3-enecarboxylic acid] | < 100 nM
7 | C=C(C)[C@@H]1CC[C@]2(NCCN3C[C@@H]4C[C@H]3CS4(=O)=O)CC[C@]3(C)[C@H](CC[C@@H]4[C@@]5(C)CC[C@H](OC(=O)CC(C)(C)C(=O)O)C(C)(C)[C@@H]5CC[C@]43C)[C@@H]12 [Example B12, 4-(((1R,3aS,5aR,5bR,7aR,9S,11aR,11bR,13aR,13bR)-3a-((2-((1S,4S)-2,2-dioxido-2-thia-5-azabicyclo[2.2.1]heptan-5-yl)ethyl)amino)-5a,5b,8,8,11a-pentamethyl-1-(prop-1-en-2-yl)icosahydro-1H-cyclopenta[a]chrysen-9-yl)oxy)-2,2-dimethyl-4-oxobutanoic acid] | < 100 nM
